Laboratory results published in US20190015423A1, “REGULATION OF GENE EXPRESSION BY MODULATING PRIMARY CILIA LENGTH” (THE TRUSTEES OF COLUMBIA UNIVERSITY IN THE CITY OF NEW YORK, priority 2016, published 2019).
Structures can show the parent of a compound that is named as a salt.

test system: MLO-Y4 osteocytes; experiment: High-throughput drug screening of primary cilia length and incidence; assay type: cell-based; conditions: 10 μM, 16 hours, triplicate; normalized to vehicle control; standard deviation away from the population average
Protocol: MLO-Y4 osteocytes were maintained on collagen I-coated dishes in MEMα (Life_Technologies) supplemented with 5% fetal bovine serum (FBS), 5% calf serum (CS), and 1% penicillin/streptomycin (P/S) at 37° C. and 5% CO2. Osteocytes were then seeded onto 384-well collagen-coated plates for 72 hours before fixation. […] These libraries include Tocris, Sigma LOPAC, Selleck Chemical, Prestwick, and Spectrum commercially available compound libraries. All cell seeding and plate handling was performed with the Perkin Elmer cell:explorer workstation.
Cells were fixed in 4% paraformaldehyde and permeabilized with 0.1% Triton-X 100 (Sigma). 10% goat serum (vendor) was used for blocking. Cilia were stained using a monoclonal antibody against acetylated α-tubulin (1:20) from a C3B9 hybridoma cell line, and visualized with A F488 (1:1000, ThermoFisher). Nuclei were visualized with Hoechst. Cells were imaged using a GE INCell 2000 high-throughput imager at 40× magnification. 4 fields of view were taken per well.
Each pair of nuclei and cilia images was first analyzed individually, then the entire population was examined to evaluate each compound's effect on cilia length and incidence. A custom MATLAB script was developed to perform all image analysis. This script first utilizes an enhanced implementation of a watershed transform, which is a segmentation tool which enables detection of similarly shaped overlapping particles in noisy images by the procedural whittling down of pixels found close to the edge of such particles. The augmentation of the algorithm incorporates thresholding for noise removal based on signal intensity and object size, nuclei dilation to exclude non-cellular artifacts, as well as skeletonization of cilia to quantify length. The results of the analysis are number of nuclei, number of cilia, and average cilia length in each image.
Compounds were selected based on deviation from the population mean. Each well was normalized to vehicle control images on each plate, allowing the establishment of a normalized population mean. Hits were chosen based on compounds whose triplicate mean was furthest (based on standard deviation away) from the population mean. […] Compounds were classified based on mechanism of action.
To identify compounds that modulate primary cilia formation a high-throughput platform was developed to automate cell culture, staining, imaging, and analysis, as shown in schematic form in FIG. 18. […] Cells were cultured on 384-well plates, and treated with small molecules with known biologic activity, enabling classification of mechanisms of action. Drug treatment was applied for 16 hours at 10 μM concentration, performed in triplicate, before fixation and immunostaining of primary cilia. Cells were then imaged using the GE INCell 2000 High Content Analyzer, capturing 4 fields of view per well at 40× magnification. Additionally, each plate contains 8 wells of DMSO vehicle control.
A MATLAB script was developed to detect and analyze changes in ciliogenesis. […] A representative exemplary image (FIG. 19A) is cropped to better display features, scale bar represents 30 μm. A custom MATLAB script was used to identify nuclei and cilia for analysis (FIG. 19B). […] Objects are further filtered based on size and signal intensity.
Cilia length and incidence for each field of view were normalized to vehicle control on that individual plate. This allowed development of a normalized population average and standard deviation. […] To control for toxic effects only small molecules with at least 40% viability, based on number of nuclei versus control, were selected as hits. Furthermore, compounds repeated between multiple libraries eliciting the same effect on cilia length or incidence were excluded, such that only one of the repeated compounds was selected as a hit.

Molecule	Average Length SD Away [SD]	Average Incidence SD Away [SD]
CN(CCOc1ccc(C[C@H](Nc2ccccc2C(=O)c2ccccc2)C(=O)O)cc1)c1ccccn1 [GW 1929]	1.65	
Cc1cc(Cl)ccc1OCCCC(=O)NO [Droxinostat]	2.91	2.26
O=C1Cc2c([nH]c3ccc(Br)cc23)-c2ccccc2N1 [Kenpaullone]	3.28	
CN(Cc1cnc2nc(N)nc(N)c2n1)c1ccc(C(=O)N[C@@H](CCC(=O)O)C(=O)O)cc1 (racemic) [Amethopterin (RS)]	2.927	
C=C(C)[C@H]1CC=C(C(=O)O)CC1 [PERILLIC ACID (−)]	2.196	
NC(=O)c1ccc(N)nc1 [6-AMINONICOTINAMIDE]	2.008	
COc1cc2c(cc1O)CC[C@@H]1[C@@H]2CC[C@]2(C)[C@@H](O)CC[C@@H]12 [2-Methoxyestradiol]	1.62	
CN(C)CCOC(c1ccccc1)c1ccccc1 [Diphenhydramine HCl (Benadryl), Diphenhydramine HCl]		1.928
N#CC(c1ccc(Cl)cc1)c1c(Cl)cc(-n2ncc(=O)[nH]c2=O)cc1Cl (stereo not drawn) [Diclazuril]		1.668
O.c1cnc2c(c1)ccc1cccnc12 [110-Phenanthroline monohydrate]	1.838	
Cc1cccc(N(C)C(=S)Oc2ccc3ccccc3c2)c1 [Tolnaftate]		1.5099
C=C[C@H]1C[N@@]2CC[C@H]1C[C@H]2[C@H](O)c1ccnc2ccc(OC)cc12 [QUININE SULFATE]	1.802	
O=c1c(-c2ccc(O)cc2)coc2cc(O)cc(O)c12 [Genistein]		1.524
C=CCN1C[C@H](C)N([C@H](c2ccc(C(=O)N(CC)CC)cc2)c2cccc(O)c2)C[C@H]1C [BW 373U86]	1.553	
O=C(O)c1nn(Cc2ccc(Cl)cc2Cl)c2ccccc12 [Lonidamine]	2.357	
COc1cc2c(cc1OC)CC(=O)N(CCCN(C)C[C@H]1Cc3cc(OC)c(OC)cc31)CC2 [Ivabradine HCl (Procoralan), Ivabradine HCl]		1.611
O=C([O-])c1ccccc1-c1c2cc(Br)c(=O)cc-2oc2[c]([Hg+])c([O-])c(Br)cc12.[Na+].[Na+].[OH-] [Merbromin]	5.067	
COc1cc(/C=C/C(=O)N2CCC=CC2=O)cc(OC)c1OC [Piperlongumine]	3.198	
COc1ccc2oc(-c3ccccc3OC)cc(=O)c2c1 [62 -DIMETHOXYFLAVONE]	1.745	
O=C1CN=C(c2cccc(Br)c2)c2oc3ccccc3c2N1 [5-BDBD]	1.92	
CN(C)CCc1c[nH]c2ccc(C[C@H]3COC(=O)N3)cc12 [Zolmitriptan (Zomig), Zolmitriptan]		1.521
Nc1nc(N)nc(-c2cc(Cl)ccc2Cl)n1 [Irsogladine]		1.543
C[C@@H]1CC(=O)NN=C1c1ccc(NN=C(C#N)C#N)cc1 [Levosimendan]		1.52
CC(=O)O[C@H]1C[C@@H](OC(C)=O)C(C)(C)[C@@H]2C[C@@H](OC(C)=O)[C@@]3(C)C4=CC(=O)O[C@@H](c5ccoc5)[C@]4(C)CC[C@@H]3[C@@]12C [DEOXYKHIVORIN]	1.681	
CC(=O)O[C@@]12CO[C@@H]1C[C@H](O)[C@@]1(C)C(=O)[C@H](O)C3=C(C)[C@@H](OC(=O)[C@H](O)[C@@H](NC(=O)OC(C)(C)C)c4ccccc4)C[C@@](O)([C@@H](OC(=O)c4ccccc4)[C@H]21)C3(C)C [Docetaxel]	3.416	
COc1ccc(C(=O)c2c(C)n(CCN3CCOCC3)c3cc(I)ccc23)cc1 [AM 630]	1.741	

Molecule	Average Length SD Away [SD]	Average Incidence SD Away [SD]
COCCc1ccc(OCC(O)CNC(C)C)cc1 (stereo not drawn) [Metoprolol tartrate]		1.601
CCCCc1oc2ccccc2c1C(=O)c1cc(I)c(OCCN(CC)CC)c(I)c1 [Amiodarone HCl]		3.38
COc1ccccc1OCC(O)CN1CCN(CC(=O)Nc2c(C)cccc2C)CC1 (stereo not drawn) [Ranolazine (Ranexa), Ranolazine]		1.565
Nc1nc(Cl)nc2c1ncn2[C@H]1C[C@H](O)[C@@H](CO)O1 [Cladribine]		1.604
CCCC(=O)[O-].[Na+] [Sodium butyrate]		2.3981
CC[C@@]1(O)C(=O)OCc2c1cc1n(c2=O)Cc2cc3c(CN(C)C)c(O)ccc3nc2-1 [Topotecan hydrochloride hydrate]	3.899	2.75
CC(C)(C)NCC(O)c1ccccc1Cl (stereo not drawn) [TULOBUTEROL]	2.06	
C[C@@H](NC(=O)/C(C#N)=C/c1ccc(O)c(O)c1)c1ccccc1 (single isomer, unassigned) [Tyrphostin B44 (−) enantiomer]	1.877	
O=C(O)/C=C/c1ccc(Cn2ccnc2)cc1 [Ozagrel HCl]		1.683
Cc1cccc(Cc2c[nH]cn2)c1C [Detomidine HCl]		1.922
Cc1cc(NS(=O)(=O)c2ccc(N)cc2)no1 [Sulfamethoxazole]		1.767
Cc1nccn1CC1CCc2c(c3ccccc3n2C)C1=O (stereo not drawn) [Ondansetron (Zofran), Ondansetron]		1.506
CC1=C(/C=C/C(C)=C/C=C/C(C)=C/C(=O)Nc2ccc(O)cc2)C(C)(C)CCC1 [Retinoic acid p-hydroxyanilide]	2.487	
CCCOc1ccc2nc(NC(=O)OC)[nH]c2c1 [Oxibendazole]		4.084
CC(C[N+](C)(C)C)OC(N)=O (stereo not drawn) [Bethanechol chloride]		1.764
COC(=O)C1=C(C)NC(C)=C(C(=O)OC2CCCN(Cc3ccccc3)C2)C1c1cccc([N+](=O)[O-])c1 (stereo not drawn) [Benidipine hydrochloride]		1.811
Cc1cc(/C=C/c2ccc3cc(N(C)C)ccc3[n+]2C)c(C)n1-c1ccccc1 [PYRVINIUM PAMOATE]	2.834	
COc1c(C)c2c(c(O)c1C/C=C(\C)CCC(=O)OCCN1CCOCC1)C(=O)OC2 [Mycophenolate mofetil (CellCept), Mycophenolate mofetil]	1.579	1.654
O=C(CCCCCCC(=O)Nc1ccccc1)NO [Vorinostat]	3.283	
Gabexate mesylate		1.87
COc1cc2c(cc1C(F)(F)F)N(C(=O)Nc1cc(F)cc(-c3cccnc3)c1)CC2 [SB 228357]	2.332	
CCOc1ccc2nc3cc(N)ccc3c(N)c2c1 [Ethacridine lactate monohydrate]	2.114	
c1ccc2c(c1)[I+]c1ccccc1-2 [Diphenyleneiodonium chloride]	2.603	
CCCOc1ccc(C(=O)OCCN(CC)CC)cc1N [Proparacaine HCl]		1.523
OCCN(CCO)c1nc(N2CCCCC2)c2nc(N(CCO)CCO)nc(N3CCCCC3)c2n1 [Dipyridamole (Persantine), Dipyridamole]		2.055
